Reference: patent US20110039825A1, “LIGANDS OF ALPHA-ADRENOCEPTORS, DOPAMINE, HISTAMINE, IMIDAZOLINE AND SEROTONIN RECEPTORS AND THEIR USE” (Alla Chem, LLC, priority 2007, published 2011)
Where a name gives a salt, the structure may show the parent alone. Each block holds one molecule with its values, some of them ahead of it.

How the values were obtained:
[1] = target: T1, recombinant human 5-HT2B receptor (Homo sapiens, UniProt P41595); experiment: radioligand binding to serotonin receptor 5-HT2B ([3H] Lysergic acid diethylamide)
T1 construct: expressed in transfected cells; host or cells: CHO-K1
T1 sequence (P41595 whole entry): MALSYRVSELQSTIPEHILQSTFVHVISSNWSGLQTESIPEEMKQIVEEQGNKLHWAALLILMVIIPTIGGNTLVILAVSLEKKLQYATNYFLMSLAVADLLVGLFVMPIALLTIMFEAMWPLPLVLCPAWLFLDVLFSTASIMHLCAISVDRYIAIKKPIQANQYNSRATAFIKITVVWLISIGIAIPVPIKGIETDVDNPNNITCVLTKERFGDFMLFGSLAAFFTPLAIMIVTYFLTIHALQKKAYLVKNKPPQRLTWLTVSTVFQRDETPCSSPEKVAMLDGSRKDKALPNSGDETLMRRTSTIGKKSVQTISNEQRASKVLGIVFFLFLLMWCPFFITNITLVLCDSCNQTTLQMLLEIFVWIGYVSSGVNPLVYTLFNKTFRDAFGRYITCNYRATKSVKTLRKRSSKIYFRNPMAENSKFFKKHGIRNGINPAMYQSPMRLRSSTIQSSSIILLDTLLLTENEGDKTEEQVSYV

[2] = target: T2, recombinant human 5-HT2A receptor (Homo sapiens, UniProt P28223); experiment: radioligand binding to serotonin receptor 5-HT2A ([3H] Ketanserin)
T2 construct: expressed in transfected cells; host or cells: CHO-K1
T2 sequence (P28223 whole entry): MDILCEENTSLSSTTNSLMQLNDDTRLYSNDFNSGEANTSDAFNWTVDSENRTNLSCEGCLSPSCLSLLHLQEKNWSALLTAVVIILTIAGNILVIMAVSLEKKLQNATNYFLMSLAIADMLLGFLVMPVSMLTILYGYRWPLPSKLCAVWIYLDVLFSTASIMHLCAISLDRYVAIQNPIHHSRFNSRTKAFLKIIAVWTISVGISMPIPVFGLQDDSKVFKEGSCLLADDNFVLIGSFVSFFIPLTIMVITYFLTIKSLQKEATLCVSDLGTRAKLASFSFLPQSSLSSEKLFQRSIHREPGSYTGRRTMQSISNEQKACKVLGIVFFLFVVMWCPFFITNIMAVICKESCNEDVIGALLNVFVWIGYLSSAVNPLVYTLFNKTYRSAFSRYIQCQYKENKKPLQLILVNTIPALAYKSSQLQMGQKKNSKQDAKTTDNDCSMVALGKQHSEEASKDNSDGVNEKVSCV
Procedure: 9-C. […] J. Neurochem. […] Ketanserin is used as positive control. […] Values of % I is calculated according to the following equation: […]

recombinant human 5-HT1A = target: T3, recombinant human 5-HT1A (Homo sapiens, UniProt P08908); experiment: radioligand binding to serotonin receptor 5-HT1A ([3H] 8-OH-DPAT)
T3 construct: expressed in transfected cells; host or cells: CHO
T3 sequence (P08908 1-422): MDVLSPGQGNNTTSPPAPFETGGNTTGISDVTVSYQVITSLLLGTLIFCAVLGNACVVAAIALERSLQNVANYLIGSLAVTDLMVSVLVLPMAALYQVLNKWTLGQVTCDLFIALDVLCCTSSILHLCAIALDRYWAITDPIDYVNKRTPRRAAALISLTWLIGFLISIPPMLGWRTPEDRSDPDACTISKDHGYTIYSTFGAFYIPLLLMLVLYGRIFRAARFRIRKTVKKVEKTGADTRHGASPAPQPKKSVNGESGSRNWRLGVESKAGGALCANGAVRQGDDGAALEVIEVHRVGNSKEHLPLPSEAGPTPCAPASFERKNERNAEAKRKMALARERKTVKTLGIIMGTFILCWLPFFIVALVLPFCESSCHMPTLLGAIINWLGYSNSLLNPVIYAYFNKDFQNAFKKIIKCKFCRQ
From the text: J Pharmacol Exp Ther. 306(1): 301-309, 2003]. […] Metergoline is used as positive control.

human 5-HT7 receptor = target: T4, human 5-HT7 receptor (Homo sapiens, UniProt P34969); experiment: radioligand binding to serotonin receptor 5-HT7 ([3H] Lysergic acid diethylamide)
T4 construct: expressed in transfected cells; host or cells: CHO
T4 sequence (P34969 whole entry): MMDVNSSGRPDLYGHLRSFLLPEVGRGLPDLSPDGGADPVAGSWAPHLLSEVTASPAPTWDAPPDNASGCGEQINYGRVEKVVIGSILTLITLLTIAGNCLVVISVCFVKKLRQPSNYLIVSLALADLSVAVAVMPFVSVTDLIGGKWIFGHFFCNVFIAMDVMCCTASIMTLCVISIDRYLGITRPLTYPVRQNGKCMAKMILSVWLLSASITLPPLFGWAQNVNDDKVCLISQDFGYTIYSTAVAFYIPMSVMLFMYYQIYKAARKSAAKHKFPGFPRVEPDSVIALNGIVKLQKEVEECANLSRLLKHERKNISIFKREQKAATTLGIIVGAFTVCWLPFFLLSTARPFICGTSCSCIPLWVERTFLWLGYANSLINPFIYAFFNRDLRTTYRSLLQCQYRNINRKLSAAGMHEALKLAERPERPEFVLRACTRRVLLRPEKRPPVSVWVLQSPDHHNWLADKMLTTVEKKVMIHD
From the text: For this purpose sDNA of human 5-HT7 receptor is expressed in CHO cells as it was described in [Shen Y, Monsma F J Jr, Metcalf M A, Jose P A, Hamblin M W, and Sibley DR. […] J. Biol. Chem. 1993, 268, 18200-18204]. […] J. Pharmacol. Exp. Ther. 1994, 268:1403-1410]. […] Methiothepin is used as positive control.

adrenergic receptor α1B = target: T5, adrenergic receptor α1B (Rattus norvegicus, UniProt P15823); experiment: radioligand binding to adrenergic receptor α1B ([3H] Prazosin); conditions: 10 μM ligand
T5 construct: membrane species from rat liver (rat of Wistar breed) are prepared; from tissue; host or cells: rat (Wistar) liver membranes
T5 sequence (P15823 1-515): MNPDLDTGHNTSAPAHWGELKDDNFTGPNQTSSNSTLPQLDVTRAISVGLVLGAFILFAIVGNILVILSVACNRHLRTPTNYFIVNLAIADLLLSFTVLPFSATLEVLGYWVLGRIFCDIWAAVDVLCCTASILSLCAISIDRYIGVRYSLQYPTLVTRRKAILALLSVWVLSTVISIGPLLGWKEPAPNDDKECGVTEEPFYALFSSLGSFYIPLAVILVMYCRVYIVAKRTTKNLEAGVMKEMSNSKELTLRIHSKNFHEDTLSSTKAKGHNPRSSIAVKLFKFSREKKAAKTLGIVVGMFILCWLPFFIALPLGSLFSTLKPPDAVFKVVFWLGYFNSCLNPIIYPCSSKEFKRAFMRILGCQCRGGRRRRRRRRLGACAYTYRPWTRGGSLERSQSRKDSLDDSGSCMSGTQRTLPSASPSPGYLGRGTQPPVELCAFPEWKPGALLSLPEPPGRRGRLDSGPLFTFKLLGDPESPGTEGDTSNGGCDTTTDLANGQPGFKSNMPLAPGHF
From the text: Species heterogeneity of hepatic α1A-, α1B-, and α1C-subtypes. Biochem Biophys Res Commun. 186:760-7676 1992]. […] Prazosin is used as positive control.

human α2A receptor = target: T6, human α2A receptor (Homo sapiens, UniProt P08913); experiment: radioligand binding to adrenergic receptor α2A ([3H] MK-912); conditions: 10 μM ligand
T6 construct: expressed in transfected cells; host or cells: Sf9
T6 sequence (P08913 1-465): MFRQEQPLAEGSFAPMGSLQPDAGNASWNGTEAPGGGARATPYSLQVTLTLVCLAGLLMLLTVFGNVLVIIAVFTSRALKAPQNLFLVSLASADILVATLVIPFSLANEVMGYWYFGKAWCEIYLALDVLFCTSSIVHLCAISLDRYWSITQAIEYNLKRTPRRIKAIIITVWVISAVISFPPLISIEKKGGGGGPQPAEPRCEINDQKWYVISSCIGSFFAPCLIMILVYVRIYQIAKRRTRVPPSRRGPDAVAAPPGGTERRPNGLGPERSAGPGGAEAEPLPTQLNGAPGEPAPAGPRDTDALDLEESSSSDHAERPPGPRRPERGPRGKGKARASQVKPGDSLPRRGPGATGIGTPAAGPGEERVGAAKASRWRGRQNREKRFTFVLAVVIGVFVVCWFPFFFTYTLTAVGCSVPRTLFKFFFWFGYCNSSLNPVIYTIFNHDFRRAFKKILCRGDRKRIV
From the text: J Pharmacol ExpTher. […] Yohimbine is used as positive control.

adrenergic receptor α1A = target: T7, adrenergic receptor α1A (Rattus norvegicus, UniProt P43140); experiment: radioligand binding to adrenergic receptor α1A ([3H] Prazosin); conditions: 10 μM ligand
T7 construct: membrane species from rat submaxillary glands (rat of Wistar breed) are prepared; from tissue; host or cells: rat (Wistar) submaxillary gland membranes
T7 sequence (P43140 1-466): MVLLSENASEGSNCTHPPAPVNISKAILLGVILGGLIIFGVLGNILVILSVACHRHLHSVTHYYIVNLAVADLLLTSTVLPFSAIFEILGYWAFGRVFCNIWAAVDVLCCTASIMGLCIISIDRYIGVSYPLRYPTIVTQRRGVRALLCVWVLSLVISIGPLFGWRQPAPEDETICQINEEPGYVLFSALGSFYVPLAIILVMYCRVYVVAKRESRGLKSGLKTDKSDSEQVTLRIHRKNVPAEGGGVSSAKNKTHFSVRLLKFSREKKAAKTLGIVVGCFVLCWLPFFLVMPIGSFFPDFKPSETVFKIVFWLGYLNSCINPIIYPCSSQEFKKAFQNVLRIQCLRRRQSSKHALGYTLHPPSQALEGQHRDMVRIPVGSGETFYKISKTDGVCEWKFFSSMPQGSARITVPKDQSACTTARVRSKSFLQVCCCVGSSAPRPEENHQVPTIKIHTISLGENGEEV
Procedure: Determination of investigated compounds' binding to α1A receptor was carried out according to the method described in [Michel A D, Loury D N and Whiting R l. Identification of a single α1A-adrenoceptor corresponding to the α1A-subtype in rat submaxillary gland. Br J. Pharmacol. 98:883-889, 1989]. […] Prazosin is used as positive control.

imidazoline receptor I2 = experiment: radioligand binding to imidazoline receptor I2 ([3H] Idazoxan); set-up: species or system rat
Procedure: Determination of investigated compounds' binding to imidazoline I2 receptor is carried out according to the method described in [Brown C M, MacKinnon A C, McGrath J C, Spedding M and Kilpatrick A T, a2-Adrenoceptor subtypes and imidazoline-like binding in the rat brain. Br J. Pharmacol. 99:803-809, 1990]. […] Idazoxan is used as positive control.

human α1D receptor = target: T8, human α1D receptor (Homo sapiens, UniProt P25100); experiment: radioligand binding to adrenergic receptor α1D ([3H] Prazosin); conditions: 10 μM ligand
T8 construct: expressed in transfected cells; host or cells: HEK-293
T8 sequence (P25100 1-572): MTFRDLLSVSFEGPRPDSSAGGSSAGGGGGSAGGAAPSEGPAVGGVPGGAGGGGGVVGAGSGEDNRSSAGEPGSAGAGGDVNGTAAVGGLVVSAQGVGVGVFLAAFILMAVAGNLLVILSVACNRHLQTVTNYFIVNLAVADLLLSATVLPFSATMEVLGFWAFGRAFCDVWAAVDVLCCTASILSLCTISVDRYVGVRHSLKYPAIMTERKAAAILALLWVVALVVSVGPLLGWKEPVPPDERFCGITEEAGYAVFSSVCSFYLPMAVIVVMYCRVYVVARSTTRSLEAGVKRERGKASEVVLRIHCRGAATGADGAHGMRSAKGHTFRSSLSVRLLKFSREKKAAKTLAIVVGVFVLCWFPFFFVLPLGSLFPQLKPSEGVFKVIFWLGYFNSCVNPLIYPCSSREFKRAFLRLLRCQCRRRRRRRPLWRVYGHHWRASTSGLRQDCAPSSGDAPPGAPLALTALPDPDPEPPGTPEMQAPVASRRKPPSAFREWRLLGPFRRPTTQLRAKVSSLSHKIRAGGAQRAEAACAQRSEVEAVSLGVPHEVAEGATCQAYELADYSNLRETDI
From the text: 6-C. […] For this purpose sDNA of human α1D receptor is expressed in HEK-293 cells, as it was described in [T L Theroux, T A Esbenshade, R D Peavy and K P Minneman. Coupling efficiencies of human alpha 1-adrenergic receptor subtypes: titration of receptor density and responsiveness with inducible and repressible expression vectors. Mol. Pharmacol.; 50: 1376-1387, 1996]. […] Prazosin is used as positive control.

human H1 receptor = target: T9, human H1 receptor (Homo sapiens, UniProt P35367); experiment: radioligand binding to histamine receptor H1 ([3H] Pyrilamine); conditions: 10 μM ligand
T9 construct: expressed in transfected cells; host or cells: CHO-K1
T9 sequence (P35367 whole entry): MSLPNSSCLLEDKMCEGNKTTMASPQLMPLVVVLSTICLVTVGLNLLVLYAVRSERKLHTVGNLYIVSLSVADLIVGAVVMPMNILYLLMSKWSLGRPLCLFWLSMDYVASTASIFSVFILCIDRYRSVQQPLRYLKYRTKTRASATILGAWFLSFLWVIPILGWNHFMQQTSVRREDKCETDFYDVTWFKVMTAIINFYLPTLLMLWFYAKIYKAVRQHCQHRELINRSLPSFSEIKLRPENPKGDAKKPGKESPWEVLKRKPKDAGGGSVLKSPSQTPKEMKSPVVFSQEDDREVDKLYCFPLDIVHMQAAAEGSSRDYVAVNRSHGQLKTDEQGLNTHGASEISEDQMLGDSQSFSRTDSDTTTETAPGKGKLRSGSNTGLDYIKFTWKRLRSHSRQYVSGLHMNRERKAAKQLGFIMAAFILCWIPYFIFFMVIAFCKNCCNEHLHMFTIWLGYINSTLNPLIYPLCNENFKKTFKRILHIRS
From the text: Biochem Biophys Res Comm. 197(3): 1601-1608, 1993]. […] Biochem Biophys Res Comm. 197(3): 1601-1608, 1993].
Pyrilamine is used as positive control.

[3] = target: T10, recombinant human 5-HT2C receptor (Homo sapiens, UniProt P28335); experiment: radioligand binding to serotonin receptor 5-HT2C ([3H] Mesulergine)
T10 construct: expressed in transfected cells; host or cells: CHO-K1
T10 sequence (P28335 33-458): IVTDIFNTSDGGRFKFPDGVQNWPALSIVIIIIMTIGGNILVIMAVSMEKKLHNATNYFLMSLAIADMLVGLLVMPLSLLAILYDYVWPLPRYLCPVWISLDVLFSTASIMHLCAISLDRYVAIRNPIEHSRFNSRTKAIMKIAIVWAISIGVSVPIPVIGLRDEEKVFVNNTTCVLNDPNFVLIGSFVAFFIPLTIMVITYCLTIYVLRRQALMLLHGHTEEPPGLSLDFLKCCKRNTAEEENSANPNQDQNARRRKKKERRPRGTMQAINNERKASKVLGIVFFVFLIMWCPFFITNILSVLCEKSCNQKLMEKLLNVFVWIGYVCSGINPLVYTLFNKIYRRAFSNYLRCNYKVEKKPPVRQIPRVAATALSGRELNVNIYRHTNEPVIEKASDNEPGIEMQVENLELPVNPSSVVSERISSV
From the text: J. Neurochem. 69: 1449-1458, 1997]. […] SB242084 is used as positive control.

[4] = target: T11, recombinant human 5-HT6 receptor (Homo sapiens, UniProt P50406); experiment: radioligand binding to serotonin receptor 5-HT6 ([3H] Lysergic acid diethylamide)
T11 construct: expressed in transfected cells; host or cells: HeLa
T11 sequence (P50406 whole entry): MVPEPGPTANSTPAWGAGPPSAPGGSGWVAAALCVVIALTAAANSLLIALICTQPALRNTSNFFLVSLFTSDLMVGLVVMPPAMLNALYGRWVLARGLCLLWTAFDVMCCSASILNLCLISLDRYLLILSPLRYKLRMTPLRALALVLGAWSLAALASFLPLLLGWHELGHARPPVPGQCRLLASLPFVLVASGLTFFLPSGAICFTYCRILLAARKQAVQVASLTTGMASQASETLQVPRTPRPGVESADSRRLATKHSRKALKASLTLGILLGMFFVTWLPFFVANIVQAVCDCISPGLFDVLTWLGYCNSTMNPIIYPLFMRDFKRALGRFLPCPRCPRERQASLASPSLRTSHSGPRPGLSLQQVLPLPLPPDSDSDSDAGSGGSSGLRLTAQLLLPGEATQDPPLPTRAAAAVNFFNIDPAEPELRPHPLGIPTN
From the text: Mol. Pharmacol. 43:320-327, 1993]. […] Methiothepin is used as positive control.

5-HT2B % inhibition ([1]; 10 μM ligand): 84%
5-HT2A % inhibition ([2]; 10 μM ligand): 89%
5-HT1A % inhibition (recombinant human 5-HT1A; 10 μM ligand): 20%
5-HT7 % inhibition (human 5-HT7 receptor; 10 μM ligand): 97%
Compound: Cc1ccc2c(c1)c1c(n2CCc2ccccc2)CCCN(C)C1 [1.2.2(1-2)•HCl]

Compound: Cc1ccc2c(c1)c1c(n2CCc2cccnc2)CCCN(C)C1.Cl.Cl [1.2.2(3-2)•2HCl]
α-Adrenoceptor α1B, % inhibition (adrenergic receptor α1B): 75%
α-Adrenoceptor α2A, % inhibition (human α2A receptor): 71%
α-Adrenoceptor α1A, % inhibition (adrenergic receptor α1A): 61%
inhibition at 1 µM (recombinant human 5-HT1A; ligand concentration 1 μM): 6%
imidazoline I2 receptor % inhibition (imidazoline receptor I2; 10 μM ligand): 63%
α-Adrenoceptor α1D, % inhibition (human α1D receptor): 60%

Compound: CN1CCc2c(c3ccccc3n2Cc2ccccc2)C1.Cl [1.9(1)•HCl, 5-benzyl-2-methyl-2,3,4,5-tetrahydro-1H-pyrido[4,3-b]indole hydrochloride]
Histamine receptor H1, % inhibition (human H1 receptor): 97%
IC50 [3]: 33.7 nM
Ki [3]: 17.7 nM
nH 5-HT2C [3]: 1.21
5-HT2C % inhibition ([3]; 0.1 μM ligand): 79%
5-HT2C % inhibition ([3]; 10 μM ligand): 97%
nH 5-HT2B [1]: 0.836
5-HT2B % inhibition ([1]; 0.1 μM ligand): 52%
5-HT2B % inhibition ([1]; 10 μM ligand): 99%
IC50 ([1]; read-out: IC50 5-HT2B): 106 nM
Ki ([1]; read-out: Ki 5-HT2B): 67.2 nM
α-Adrenoceptor α1B, % inhibition (adrenergic receptor α1B): 70%
IC50 [2]: 30.1 nM
Ki [2]: 8.6 nM
nH 5-HT2A [2]: 0.765
5-HT2A % inhibition ([2]; 0.1 μM ligand): 68%
5-HT2A % inhibition ([2]; 10 μM ligand): 96%
α-Adrenoceptor α2A, % inhibition (human α2A receptor): 100%
IC50 [4]: 330 nM
Ki [4]: 153 nM
nH 5-HT6 [4]: 1.04
5-HT6 % inhibition ([4]; 10 μM ligand): 71%
inhibition at 1 µM ([4]; ligand concentration 1 μM, read-out: 5-HT6 % inhibition): 79%
α-Adrenoceptor α1A, % inhibition (adrenergic receptor α1A): 70%
imidazoline I2 receptor % inhibition (imidazoline receptor I2; 3 μM ligand): 75 (3 μM) %
5-HT7 % inhibition (human 5-HT7 receptor; 0.3 μM ligand): 76%
5-HT7 % inhibition (human 5-HT7 receptor; 10 μM ligand): 91%
